Assay results published in patent US20070191324A1, “Methods for treatment or prophylaxis of aldosterone-mediated pathogenic effects in a subject using an epoxy-steroidal aldosterone antagonist” (priority 1999, published 2007).
Like-named read-outs stand apart in the source and are kept apart here.

What was measured:
[1] = tested on: saline-hydrated conscious dogs treated with aldosterone; assay: Antimineralocorticoid action in saline-hydrated conscious dogs treated with aldosterone (Example A-2); assay type: in vivo; conditions: aldosterone i.v. infusion; antagonist 10 mg/kg orally
[2] = Pharmacokinetics and absorption of [14C]eplerenone in the rat (Example A-9); assay type: in vivo; conditions: for Cmax: rat, oral 15 mg/kg
Protocol: Plasma, urine and fecal samples were analyzed for total radioactivity.

[3] = tested on: patients with hypertension and left ventricular hypertrophy; assay: Eplerenone, enalapril and combination in left ventricular hypertrophy, 9 months (Examples A-15, D-4); assay type: in vivo, human
Source text: Table […] illustrates forth the above-described dosing scheme. […] Additional laboratory assessments of blood for clinical safety will be done monthly. Routine urinalysis will be done every three months. […] A blood sample for genotyping will be collected at Week 0. At screening and at Month 9, a 12-lead ECG and physical examination will be done. […] In case of early termination, an MRI and blood sample for TSH will be done for those patients who have received double-blind treatment for at least three months. At Weeks 0, 12 and Months 6 and 9, pharmacoeconomic data will be collected on all patients. The primary measure of efficacy is the change from baseline in LVM, as assessed by MRI, in the eplerenone group versus the enalapril group. […] Secondary measures of efficacy will be the following: […] (3) aortic compliance and ventricular filling parameters; and (4) special studies (PIIINP, microalbuminuria, PAI, and tPA). Additionally, the long-term safety and tolerability of the three treatment groups will be compared. […] The study design is illustrated in FIG. D-10. […] Left ventricular mass (LVM) (assayed by MRI), BP, collagen turnover, and tolerability were assessed at the 9-month endpoint.

[4] = tested on: older patients with systolic hypertension and/or widened pulse pressure; assay: Eplerenone versus amlodipine in systolic hypertension in older people, 24 weeks (Examples A-19, D-8); assay type: in vivo, human
Source text: At Week 10 or thereafter, if SBP is =170 mmHg on two consecutive visits, one to three days apart, and the patient is on the maximum dose of study drug, he/she must be withdrawn. Patients will receive double-blind study medication for a total of 24 weeks. Table A-19A illustrates the above-described dosing scheme.
Heart rate, BP, serum potassium levels, concomitant medications and adverse events will be assessed at each visit. […] Special studies: collagen markers [aminoterminal propeptide of type III procollagen (PIIINP), 7S domain of type IV collagen (7SIVC), and type I collagen telopeptide (ICTP)], plasma […] (PAI-1), tissue plasminogen activator (t-PA), microalbuminuria, and at selected sites, Ambulatory Blood Pressure Monitoring (ABPM) and arterial compliance will be done at Weeks 0, 14, and 24 or at Final Visit. Quality of Life Questionnaires will be done at visit 2A (beginning of single blind) and Weeks 0, 14, and 24 or at Final Visit. DNA genotyping will be performed at baseline.
In older patients, elevated systolic BP and wide pulse pressure predict cardiovascular risk better than diastolic BP. Reduced vascular compliance and intraglomerular hypertension typically accompany isolated systolic hypertension in older people.
Changes in arterial compliance, measured by pulse-wave velocity, microalbuminuria, and adverse effects (AEs) were assessed at baseline and after 24 weeks of therapy.

[5] = tested on: patients not controlled with ACE-I or ARB; assay: Co-administration of eplerenone with ACE-I or ARB in mild-moderate hypertension (Example D-9); assay type: in vivo, human
Protocol: Patients examined in the study were those who currently were treated with an ACE-I and/or ARB and who had DBP ≧95 mmHg and <110 mmHg and SBP <180 mmHg. Previous antihypertensive therapy was withdrawn except a fixed dose of single ACE-I or ARB.

[6] = tested on: patients uncontrolled with BB or CCB monotherapy; assay: Eplerenone co-administration with CCB or beta-blocker, 8 weeks (Example D-10); assay type: in vivo, human; conditions: for Diastolic Blood Pressure Responder Rates, Percentage of Patients Responding: seDBP <90 mmHg or ≧10 mmHg reduction
Protocol: This was a multicenter, double-blind, randomized, placebo-controlled, placebo run-in, parallel-group study. […] The dose was to be increased only once during the study. […] Study assessments at protocol-specified timepoints included BP, heart rate, clinical laboratory analyses, ECG, and concomitant medications. Throughout the study, safety was assessed by routine clinical laboratory analyses, vital signs, physical examinations, 12-lead ECG, and monitoring of adverse events. […] The study was designed to include 60 randomized patients in each group and each cohort.

[7] = tested on: patients with stage I-III hypertension; assay: Fixed-dose eplerenone vs placebo, clinic and ambulatory BP, 12 weeks (Example D-13); assay type: in vivo, human
Source text: Patients were reassessed using clinic and ambulatory BP at the end of 12 weeks of therapy.

[8] = tested on: black and white patients with mild-to-moderate hypertension; conditions: for Active Renin (% change) / ΔDBP / ΔSBP: baseline to Week 16
[9] = 9-month endpoint, forced titration
[10] = 9-month endpoint, EPL 200 mg, ENAL 40 mg, EPL 200 mg/ENAL 10 mg
[11] = after 24 weeks, titration-to-effect
[12] = addition of eplerenone, 8 weeks
[13] = eplerenone 50-100 mg QD, 8 weeks

Structure (SMILES): COC(=O)[C@@H]1CC2=CC(=O)CC[C@]2(C)[C@@]23O[C@@H]2C[C@@]2(C)[C@@H](CC[C@@]24CCC(=O)O4)[C@H]13 [Eplerenone, Pregn-4-ene-7,21-dicarboxylic acid, 9,11-epoxy-17-hydroxy-3-oxo-, γ-lactone, methyl ester, (7α, 11α, 17β)-]
- Na/K Ratio [1]: 2.1
- Urinary Excretion Potassium [1]: 11.9 ± 1 mmol/2 h
- Urinary Excretion Sodium [1]: 24.4 ± 3 mmol/2 h
- time of peak plasma concentration of total radioactivity ([2]; oral aqueous solution 15 mg/kg, male rat): 1.1 h
- clearance ([2]; plasma, IV 15 mg/kg, male rat): 1.22 L/h/kg
- half-life ([2]; plasma, IV 15 mg/kg, male rat): 48.2 min
- Cmax ([2]; plasma, female rats): 3.54 µg/mL
- Cmax ([2]; plasma, male rats): 1.71 µg/mL
- DBP Adjusted mean change [3, 9]: −10.8 mmHg
- SBP Adjusted mean change [3, 9]: −21.0 mmHg
- decrease from baseline in UACR [3, 10]: −28.7%
- decrease from baseline in collagen turnover [3, 10]: −7.3%
- patients experiencing coughing ([3]; 9-month study): 3.1%
- LVM Adjusted mean change [g (SE)] ([3]; left ventricular mass by MRI, 9-month endpoint, forced titration (EPL 50-200 mg, ENAL 10-40 mg)): −14.5 (3.36) g
- regressing LVH and reducing collagen turnover ([3]; monotherapy): as effective as enalapril monotherapy
- Edema rates (%) ([4]; 24-week study): 3.7%
- peripheral edema frequency ([4]; 24 weeks): 3.7%
- reduction in pulse pressure ([4]; 24 weeks): −15.9 mmHg
- symptoms with significant and clinically meaningful worsening in distress from Baseline (QoL) ([4]; 24 weeks): no worsening in distress
- reduction in SBP ([4]; 24 weeks, EPL 50-200 mg QD, AML 2.5-10 mg QD): −20.5 mmHg
- Pulse Pressure (change) [4, 11]: −15.9 ± 0.96 mmHg
- Systolic BP (change) [4, 11]: −20.5 ± 1.14 mmHg
- safety and tolerability ([4]; in vivo): safe and well tolerated
- Δ microalbuminuria (%) ([4]; only for patients with baseline microalbuminuria (>30 mg/g), 24 weeks): −52.3%
- reduction in UACR ([4]; patients with baseline microalbuminuria (>30 mg/g)): −27.1%
- laboratory abnormalities, K+, adverse events ([5]; addition of eplerenone to ACE-I or ARB): No significant increase in relevant laboratory abnormalities
- SBP & DBP in patients currently treated with ARB [5, 12]: Significant reductions in SBP & DBP
- SBP in patients currently treated with ACE-I [5, 12]: Significant reductions in SBP
- heart rate ([5]; either group): No change in heart rate
- Diastolic Blood Pressure Responder Rates, Percentage of Patients Responding ([6]; BB Cohort, Week 2): 48 (69.6%)
- Diastolic Blood Pressure Responder Rates, Percentage of Patients Responding ([6]; BB Cohort, Week 4): 53 (76.8%)
- Diastolic Blood Pressure Responder Rates, Percentage of Patients Responding ([6]; BB Cohort, Week 6): 56 (81.2%)
- Diastolic Blood Pressure Responder Rates, Percentage of Patients Responding ([6]; BB Cohort, Week 8): 52 (75.4%)
- Diastolic Blood Pressure Responder Rates, Percentage of Patients Responding ([6]; CCB Cohort, Week 2): 40 (60.6%)
- Diastolic Blood Pressure Responder Rates, Percentage of Patients Responding ([6]; CCB Cohort, Week 4): 51 (76.1%)
- Diastolic Blood Pressure Responder Rates, Percentage of Patients Responding ([6]; CCB Cohort, Week 6): 55 (82.1%)
- Diastolic Blood Pressure Responder Rates, Percentage of Patients Responding ([6]; CCB Cohort, Week 8): 48 (71.6%)
- safety and tolerability ([6]; add on anti-hypertensive agent): safe and well tolerated
- responders (seDBP <90 mmHg or ≧10 mmHg reduction from Baseline), CCB cohort ([6]; each timepoint, vs placebo): more patients who received eplerenone responded to treatment
- responders (seDBP <90 mmHg or ≧10 mmHg reduction from Baseline), BB cohort ([6]; each timepoint, vs placebo (p ≦0.011)): significantly greater proportions of patients who received eplerenone responded to treatment
- DBP and SBP, addition to a BB [6, 13]: efficacious in reducing DBP and SBP
- SBP, addition to a CCB [6, 13]: efficacious in reducing SBP
- Δ Ambulatory BP, diastolic ([7]; 25 mg QD): −4.4 mmHg
- Δ Ambulatory BP, systolic ([7]; 25 mg QD): −6.4 mmHg
- Δ Clinic BP, diastolic ([7]; 25 mg QD): −3.7 mmHg
- Δ Clinic BP, systolic ([7]; 25 mg QD): −5.7 mmHg
- Δ Ambulatory BP, diastolic ([7]; 50 mg QD): −4.1 mmHg
- Δ Ambulatory BP, systolic ([7]; 50 mg QD): −6.8 mmHg
- Δ Clinic BP, diastolic ([7]; 50 mg QD): −4.6 mmHg
- Δ Clinic BP, systolic ([7]; 50 mg QD): −6.7 mmHg
- Δ Ambulatory BP, diastolic ([7]; 100 mg QD): −5.5 mmHg
- Δ Ambulatory BP, systolic ([7]; 100 mg QD): −9.1 mmHg
- Δ Clinic BP, diastolic ([7]; 100 mg QD): −6.3 mmHg
- Δ Clinic BP, systolic ([7]; 100 mg QD): −10.4 mmHg
- Δ Ambulatory BP, diastolic ([7]; 200 mg QD): −5.7 mmHg
- Δ Ambulatory BP, systolic ([7]; 200 mg QD): −10.3 mmHg
- Δ Clinic BP, diastolic ([7]; 200 mg QD): −5.4 mmHg
- Δ Clinic BP, systolic ([7]; 200 mg QD): −8.8 mmHg
- gynecomastia, menstrual abnormalities, breast pain ([7]; 25-200 mg QD): no reports of gynecomastia, menstrual abnormalities, or breast pain
- treatment of mild-to-moderate hypertension in black hypertensive patients ([8]; 16 weeks): superior to losartan
- Active Renin (% change) ([8]; All Patients): +45.6%
- ΔDBP ([8]; All Patients): −10.3 mmHg
- ΔSBP ([8]; All Patients): −12.8 mmHg
- Active Renin (% change) ([8]; Black Patients): +39.3%
- ΔDBP ([8]; Black Patients): −10.2 mmHg
- ΔSBP ([8]; Black Patients): −13.5 mmHg
- adjusted mean percent change from baseline in UACR ([8]; Week 16, EPL 50-200 mg QD, LOS 50-100 mg QD): −21.6%
- Active Renin (% change) ([8]; White Patients): +57.1%
- ΔDBP ([8]; White Patients): −11.1 mmHg
- ΔSBP ([8]; White Patients): −12.3 mmHg
- safety and tolerability ([8]; human, in vivo): safe and well-tolerated
